Reference: patent US20250051375A1, “ANTI-HIV COMPOUNDS” (Gilead Sciences, Inc., priority 2023, published 2025)
≈ marks a conversion by molar mass, not a printed value.

Key:
HIV-1 IIIB strain = assay: MT-4 HIV Wild Type Virus Infection Assay (IIIB Virus); format: cell-based; settings: Human immunodeficiency virus 1, IIIB, MT4, 120 h, MT-4 cells acutely infected with HIV-1 IIIB, 5 day incubation, Cell-titer glo
Method: Test compounds and controls were serially diluted and spotted in replicate into 384 well black assay plates via acoustic transfer (Echo). MT-4 cells were grown in batch, centrifuged and resuspended into fresh CCM media (RPMI w/10% FBS, 1% PS) at 2×10^6 cells/ml. MT-4 cells were acutely infected with HIV-1 IIIB strain. The size of each infection mix was scaled by the number of sample plates to be tested. Each infection mix was transferred into 5 mL closed tubes and nutated rapidly on a shaker at 37° C. incubator for 1 hour. The infection mixes were then diluted 25× in fresh cell culture media and then added to assay plates at 40 μL per well using a ViaFlo 384 pipettor. After 5 day incubation at 37° C. in a CO2 incubator, assay plates were processed with Cell-titer glo reagent using a ViaFlo 384 with an addition/mixing program. Plates were read immediately on Envision reader. Assay signals were plotted and dose response curves generated to determine individual compound EC50s.

[1] = target: bovine intestinal alkaline phosphatase (Bos taurus (Bovine), UniProt P19111); assay: BiALP: conversion by bovine intestinal alkaline phosphatase; format: in vitro ADME; settings: 2 μM substrate, 100 ng/mL iALP, Tris pH 7.8, 37° C., 60 minutes
Chain of bovine intestinal alkaline phosphatase (P19111 20-506): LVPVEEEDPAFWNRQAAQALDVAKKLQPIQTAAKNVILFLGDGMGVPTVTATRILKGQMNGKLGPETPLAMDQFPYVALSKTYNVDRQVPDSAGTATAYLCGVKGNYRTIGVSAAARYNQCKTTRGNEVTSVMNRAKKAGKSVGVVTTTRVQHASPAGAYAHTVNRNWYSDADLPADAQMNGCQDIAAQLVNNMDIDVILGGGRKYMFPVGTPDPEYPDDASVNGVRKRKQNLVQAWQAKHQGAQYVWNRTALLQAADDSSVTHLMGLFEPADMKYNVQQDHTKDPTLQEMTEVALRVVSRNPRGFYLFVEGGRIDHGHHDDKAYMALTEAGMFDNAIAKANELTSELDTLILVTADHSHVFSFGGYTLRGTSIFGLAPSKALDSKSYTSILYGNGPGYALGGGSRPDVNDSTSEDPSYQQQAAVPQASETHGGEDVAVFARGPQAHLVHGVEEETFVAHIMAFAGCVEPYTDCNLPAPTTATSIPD
Method: Fosamprenavir and its parent compound (amprenavir) were purchased from Millipore Sigma (St. Louis, MO). Test compounds, Intermediate A, fosamprenavir, and amprenavir were each separately dissolved in dimethyl sulfoxide (DMSO) at a concentration of 10 mM to form stock solutions.
All other chemicals were purchased from Millipore Sigma (St. Louis, MO) and Thermo Fisher Scientific (Waltham, MA). […] Internal Standard/Quench (IS/Q) was 100 nM labetalol in 99:1 (v/v) acetonitrile/formic acid.
Incubations were performed with Tris buffer alone (0.1 M Tris-HCl pH 7.8 containing 1 mM MgCl2 and 1 mM ZnCl2) or the same Tris buffer further containing 100 ng/mL iALP (0.01 units/mL). Triplicate 100 μL aliquots of Tris buffer±iALP were warmed to 37° C. and the reactions were initiated by the addition of the test compound or fosamprenavir to obtain final substrate concentrations of 2 μM. Incubations were then continued at 37° C. At 60 minutes, reactions were terminated by the addition of 200 μl of IS/Q and mixed by pipette. […] Aliquots (150 μL) of the supernatants were transferred to fresh plates containing 150 μL of water. Aliquots (15 μL) of the diluted supernatants were analyzed by mass spectrometry as described below.
Quantification of the test compounds and fosamprenavir was performed by analyte/internal standard peak area ratios (PARs) with comparison to 2 μM Intermediate A and amprenavir, respectively. The LC instrumentation consisted of a Thermo Scientific Vanquish pump and a Thermo Hypersil Gold column (1.9 μm particle size, 2.1×50 mm). […] The MS instrument was a Thermo Q Exactive™ Plus operating in positive ionization mode with mass tolerance of 5 ppm and calibrated on a twice weekly basis.

PBS Stability Assay = format: physicochemical; settings: buffer, pH 7.4, 2 μM, phosphate buffered saline pH 7.4; read-out: PBS T½
Method: Reagents. Stock solutions of test compounds in dimethyl sulfoxide (DMSO) having a final concentration of 10 mM were prepared and used in all experiments. Sekisui XenoTech (Kansas City, KS) provided pooled intestinal S9 fractions. All other chemicals were purchased from Sigma-Aldrich (St. Louis, MO) or VWR (West Chester, PA). Internal Standard/Quench (IS/Q) used to stop reactions was 100 nM labetalol in (by volume) formic acid (1%) and acetonitrile (99%).
PBS Stability Assay: For each test compound, an aliquot of the test compound was added to phosphate buffered saline (137 mM NaCl, 2.7 mM KCl, 10 mM phosphate buffer), pH 7.4. The incubation was initiated by the addition of the test compound to PBS to a final concentration of 2 μM. At 0, 10, 20, 30, 60 and 120 min, 25 μL aliquots of the incubation mixture were transferred to plates containing 225 μl of IS/Q solution. After quenching, the plates were centrifuged at 3000×g for 30 minutes. 150 μL aliquots of each supernatant were transferred to new plates and 150 μL water was added. Aliquots (10 μL) of the prepared samples were analyzed on a Thermo Q-Exactive mass spectrometer as described below.
Liquid Chromatography-Mass Spectrometry: Quantification of test compounds and control substrate was performed by analyte/internal standard peak area ratio (PAR) values measured on a Thermo Q-Exactive mass spectrometer coupled to a Dionex UltiMate 3000 HPLC with a Leap Technologies HTC PAL autosampler. The column used for analysis was a Thermo Scientific Hypersil GOLD (1.9 μm particle size, 50×2.1 mm). Mobile phase A consisted of 0.1% (v/v) formic acid in water. Mobile phase B consisted of 0.1% (v/v) formic acid in acetonitrile. Elution of analytes was achieved by a series of linear gradients varying the proportions of A and B. The mass spectrometer was calibrated on a weekly basis and mass tolerance of 5 ppm was used.
Data Analysis. Metabolic stabilities were determined by measuring the rates of disappearance of test compound and positive control substrate. Data (% of substrate remaining) were plotted on a semi-log scale and fitted using an exponential decline model:
where • Ct% of substrate remaining at time=t • C0% of substrate remaining at time=0 • t time • T½ half-life • The Half-life (T½) is determined by the following equation:
[formula] • Assuming a first-order reaction, the slope (k) is extrapolated from the aforementioned plotted data.

Solubility in FaSSIF = settings: 23 °C, pH 6.5, fassif, thermodynamic from solid
Method: Buffer Preparation: Fasted State Simulated Intestinal Fluid (FaSSIF): Simulated Intestinal Fluid (SIF) powder containing a complex of Taurocholate and Lecithin (4:1 molar ratio) was obtained from Biorelevant. 0.056 g of SIF powder was added to 25 mL of buffer, adjusted to pH 6.5, containing 0.011 g of NaOH (pellets), 0.099 g of NaH2PO4 (monohydrate), and 0.155 g of NaCl. The buffer was prepared with HPLC H2O. The SIE powder was stirred until completely dissolved and allowed to stand for 2 hours.
Test Compounds: Each test compound was placed in a vial containing approximately 7 mg of material. Aliquots were weighed out for each assay media at each time point to be analyzed. The buffer was added to each vial such that the final dose concentration of 5 mg/mL was achieved. Samples were then vortexed for 5-10 seconds.
The plate was sealed with a pierceable heat seal and analyzed by HPLC-UV.

Structure (SMILES) | EC50 (HIV-1 IIIB strain) [nM] | [Compound] [1] [nM] | biALP Intermediate A or [Amprenavir] (% of total) [1] | [Intermediate A] or [Amprenavir] ([1]; parent formed) [nM] | half-life at 2 μM (PBS Stability Assay) [h] | solubility at 2 h (Solubility in FaSSIF) [µg/mL]
COC(=O)N[C@H](C(=O)N[C@@H](Cc1ccc(C#Cc2cnc(N3CC4CCC(C3)N4C3COC3)nc2)cc1)[C@H](CN(Cc1c(F)cc(-c2ccn(C(F)F)n2)cc1F)NC(=O)[C@@H](NC(=O)OC)C(C)(C)C(F)(F)F)OC(=O)CC(C)(C)c1c(CC(=O)N(CCCC(=O)O)CC(=O)O)cc(C)cc1OP(=O)(O)O)C(C)(C)C(F)(F)F [Example 8] | 230 | 1709.4 | 8.4 % of total | 157.3 | 7.11 | 3260 (≈ 2000 µM)
COC(=O)N[C@H](C(=O)N[C@@H](Cc1ccc(C#Cc2cnc(N3CC4CCC(C3)N4C3COC3)nc2)cc1)[C@H](CN(Cc1c(F)cc(-c2ccn(C(F)F)n2)cc1F)NC(=O)[C@@H](NC(=O)OC)C(C)(C)C(F)(F)F)OC(=O)CC(C)(C)c1c(CC(=O)N2CCN(CC(=O)O)CC2)cc(C)cc1OP(=O)(O)O)C(C)(C)C(F)(F)F [Example 82] | 335 | 1224.3 | – | – | 6.71 | < 1000
COC(=O)N[C@H](C(=O)N[C@@H](Cc1ccc(C#Cc2cnc(N3CC4CCC(C3)N4C3COC3)nc2)cc1)[C@H](CN(Cc1c(F)cc(-c2ccn(C(F)F)n2)cc1F)NC(=O)[C@@H](NC(=O)OC)C(C)(C)C(F)(F)F)OC(=O)CC(C)(C)c1c(CC(=O)N[C@@H](C)C(=O)O)cc(C)cc1OP(=O)(O)O)C(C)(C)C(F)(F)F [Example 98] | 64.6 | 1320.1 | – | – | 6.47 | 4280 (≈ 2750 µM)
COC(=O)N[C@H](C(=O)N[C@@H](Cc1ccc(C#Cc2cnc(N3CC4CCC(C3)N4C3COC3)nc2)cc1)[C@H](CN(Cc1c(F)cc(-c2ccn(C(F)F)n2)cc1F)NC(=O)[C@@H](NC(=O)OC)C(C)(C)C(F)(F)F)OC(=O)CC(C)(C)c1c(CC(=O)NC(CP(=O)(O)O)C(=O)O)cc(C)cc1OP(=O)(O)O)C(C)(C)C(F)(F)F (stereo partly shown) [Example 34] | 179 | 2238.2 | – | – | 5.08 | 4810 (≈ 2940 µM)
COC(=O)N[C@H](C(=O)N[C@@H](Cc1ccc(C#Cc2cnc(N3CC4CCC(C3)N4C3COC3)nc2)cc1)[C@H](CN(Cc1c(F)cc(-c2ccn(C(F)F)n2)cc1F)NC(=O)[C@@H](NC(=O)OC)C(C)(C)C(F)(F)F)OC(=O)OCOC(=O)CC(C)(C)c1c(CC(=O)NCC(=O)O)cc(C)cc1OP(=O)(O)O)C(C)(C)C(F)(F)F [Example 71] | 3.9 | 1036.2 | – | – | 7.86 | 4420 (≈ 2740 µM)
COC(=O)N[C@H](C(=O)N[C@@H](Cc1ccc(C#Cc2cnc(N3CC4CCC(C3)N4C3COC3)nc2)cc1)[C@H](CN(Cc1c(F)cc(-c2ccn(C(F)F)n2)cc1F)NC(=O)[C@@H](NC(=O)OC)C(C)(C)C(F)(F)F)OC(=O)CC(C)(C)c1c(CC(=O)N[C@H]2C[C@@H](C(=O)O)C2)cc(C)cc1OP(=O)(O)O)C(C)(C)C(F)(F)F [Example 102] | 54.1 | 1966.3 | – | – | 7.78 | 2860 (≈ 1810 µM)
COC(=O)N[C@H](C(=O)N[C@@H](Cc1ccc(C#Cc2cnc(N3CC4CCC(C3)N4C3COC3)nc2)cc1)[C@H](CN(Cc1c(F)cc(-c2ccn(C(F)F)n2)cc1F)NC(=O)[C@@H](NC(=O)OC)C(C)(C)C(F)(F)F)OC(=O)OCOC(=O)CC(C)(C)c1c(CC(=O)NC(C)(C)CCC(=O)O)cc(C)cc1OP(=O)(O)O)C(C)(C)C(F)(F)F [Example 73] | 4.6 | 1660.4 | – | – | 6.36 | 145 (≈ 86.7 µM)
COC(=O)N[C@H](C(=O)N[C@@H](Cc1ccc(C#Cc2cnc(N3CC4CCC(C3)N4C3COC3)nc2)cc1)[C@H](CN(Cc1c(F)cc(-c2ccn(C(F)F)n2)cc1F)NC(=O)[C@@H](NC(=O)OC)C(C)(C)C(F)(F)F)OC(=O)CC(C)(C)c1c(CC(=O)N(C)CCC(=O)O)cc(C)cc1OP(=O)(O)O)C(C)(C)C(F)(F)F [Example 94] | 59 | 1912 | – | – | 3.72 | 1580 (≈ 1010 µM)
COC(=O)N[C@H](C(=O)N[C@@H](Cc1ccc(C#Cc2cnc(N3CC4CCC(C3)N4C3COC3)nc2)cc1)[C@H](CN(Cc1c(F)cc(-c2ccn(C(F)F)n2)cc1F)NC(=O)[C@@H](NC(=O)OC)C(C)(C)C(F)(F)F)OC(=O)CC(C)(C)c1c(CC(=O)N[C@@H](CC(N)=O)C(=O)O)cc(C)cc1OP(=O)(O)O)C(C)(C)C(F)(F)F [Example 89] | 115 | 1704.6 | – | – | 5.29 | 2390 (≈ 1500 µM)
COC(=O)N[C@H](C(=O)N[C@@H](Cc1ccc(C#Cc2cnc(N3CC4CCC(C3)N4C3COC3)nc2)cc1)[C@H](CN(Cc1c(F)cc(-c2ccn(C(F)F)n2)cc1F)NC(=O)[C@@H](NC(=O)OC)C(C)(C)C(F)(F)F)OC(=O)OCOC(=O)CC(C)(C)c1c(CC(=O)N[C@@H](CCC(=O)O)C(=O)O)cc(C)cc1OP(=O)(O)O)C(C)(C)C(F)(F)F [Example 70] | 6.6 | 1164.8 | – | – | 5.27 | 5570 (≈ 3300 µM)
COC(=O)N[C@H](C(=O)N[C@@H](Cc1ccc(C#Cc2cnc(N3CC4CCC(C3)N4C3COC3)nc2)cc1)[C@H](CN(Cc1c(F)cc(-c2ccn(C(F)F)n2)cc1F)NC(=O)[C@@H](NC(=O)OC)C(C)(C)C(F)(F)F)OC(=O)CC(C)(C)c1c(CC(=O)N(CCC(=O)O)[C@@H](CCC(=O)O)C(=O)O)cc(C)cc1OP(=O)(O)O)C(C)(C)C(F)(F)F [Example 44] | 528 | 1835.9 | – | – | 4.67 | 4550 (≈ 2700 µM)
